The structures appear in SMILES notation. In brackets after ≈: the same amount, converted by molar mass.

Here are results for 2 compounds from ChEMBL document CHEMBL4765300, “Discovery of a chiral fluorinated azetidin-2-one as a tubulin polymerisation inhibitor with potent antitumour efficacy” (Eur J Med Chem, 2020).

The nature of series [1]: Metabolic stability in human liver microsomes assessed as parent compound remaining at 10 uM measured after 60 mins in presence of NADPH by LC/MS/MS analysis. In kind it is ADME, Microsome. The note with it: read-out: Stabilty.
A short description of series [2]: Metabolic stability in human liver microsomes assessed as parent compound remaining at 10 uM measured after 5 mins in presence of NADPH by LC/MS/MS analysis. In kind it is ADME, Microsome. The note with it: read-out: Stabilty.
Series [3] in a line: Metabolic stability in human liver microsomes assessed as parent compound remaining at 10 uM measured after 10 mins in presence of NADPH by LC/MS/MS analysis. In kind it is ADME, Microsome. As to conditions: read-out: Stabilty. In general terms: Microsomes from liver hold many membrane-bound enzymes, among them those of drug oxidation.
Series [4] can be described thus: Metabolic stability in human liver microsomes assessed as parent compound remaining at 10 uM measured after 20 mins in presence of NADPH by LC/MS/MS analysis. In kind it is ADME, Microsome. As to conditions: read-out: Stabilty.
Series [5] can be described thus: Metabolic stability in human liver microsomes assessed as parent compound remaining at 10 uM measured after 30 mins in presence of NADPH by LC/MS/MS analysis. In kind it is ADME, Microsome. As to conditions: read-out: Stabilty.
Series [6] in a line: Intrinsic clearance in human liver microsomes at 10 uM incubated for 60 mins in presence of NADPH by LC/MS/MS analysis. In kind it is ADME, Microsome. As to conditions: read-out: CLH.
Series [7] can be described thus: Half life in human liver microsomes at 10 uM in presence of NADPH by LC/MS/MS analysis. In kind it is ADME, Microsome.
A short description of the next series: physchem. As to conditions: phosphate buffer, pH 7.4.

The half-life is the time needed for the level to fall by half in the phase considered. For orientation: solubility means the concentration that dissolves in the medium under given conditions. Read a low solubility as a poorly soluble substance. As for `COc1ccc([C@H]2[C@H](CF)C(=O)N2c2cc(OC)c(OC)c(OC)c2)cc1O`, in series [1], the remaining at 1 h, 10 µM stood at 73%. The remaining at 5 min, 10 µM in series [2] was 85.6%. In addition, the remaining at 10 min, 10 µM in series [3] is 91.6%. In series [4], the remaining at 20 min, 10 µM came to 88.4%. For the same compound, in series [5], the remaining at 0.5 h, 10 µM is 90.9%. The CLint scaled at 10 µM in series [6] is under 8.6 mL/min/kg. Further, in series [7], the half-life at 10 µM was over 145 min. In addition, in “physchem”, the solubility at 10 min worked out at 41.1 µg/mL (≈ 105 µM).

Take `COc1ccc(/C=C\c2cc(OC)c(OC)c(OC)c2)cc1O` [COMBRETASTATIN A4]: the remaining at 1 h, 10 µM in series [1] amounted to 5.2%. Also, the remaining at 5 min, 10 µM in series [2] came to 74.1%. For the same compound, the remaining at 10 min, 10 µM in series [3] came to 57.1%. The remaining at 20 min, 10 µM in series [4] worked out at 37.2%. The remaining at 0.5 h, 10 µM in series [5] worked out at 17.5%. In addition, the CLint scaled at 10 µM in series [6] came to 89.5 mL/min/kg. Moreover, the half-life at 10 µM in series [7] is 13.9 min. The compound also registered a solubility at 10 min in the series “physchem” of 1.04 µg/mL (≈ 3.29 µM).
